# According to DBAASP:
# “And” between values parts separate entries of the source, which are not always exact repeats. Equal values may be shown once.
# Assays:
# Assay in all cases: ≥ marks a high value that may be exact or a test limit, other limits are often not marked, values filed in µg/mL are converted to µM
# [1] = test system: Staphylococcus aureus ATCC 25923
# [2] = test system: Nocardia asteroides 201118
# [3] = test system: Escherichia coli ATCC 25922
# [4] = test system: Candida glabrata 090902
# [5] = test system: Klebsiella pneumoniae 08040724
# [6] = test system: Enterococcus faecalis 981
# [7] = test system: Pseudomonas aeruginosa CGMCC 1.50
# [8] = test system: Streptococcus agalactiae ATCC 27956
# [9] = test system: Enterococcus faecium 091299
# [10] = test system: Candida tropicalis
# [11] = test system: Pseudomonas aeruginosa 091411
# [12] = test system: Staphylococcus haemolyticus
# [13] = test system: Aeromonas sobria
# [14] = test system: Proteus vulgaris
# [15] = test system: Pseudomonas aeruginosa 091412
# [16] = test system: Klebsiella oxytoca
# [17] = test system: Cutibacterium acnes ATCC 11827
# [18] = test system: Bacillus cereus ATCC 10876
# [19] = test system: Candida albicans
# [20] = test system: Streptococcus equi subsp. zooepidemicus ATCC 43079
# [21] = test system: Streptococcus dysgalactiae subsp. dysgalactiae ATCC 27957
# [22] = test system: Proteus mirabilis
# [23] = test system: Enterococcus faecalis ATCC 29212
# [24] = test system: Stenotrophomonas maltophilia
# [25] = test system: Staphylococcus aureus ATCC 2592
# [26] = test system: Staphylococcus aureus
# [27] = test system: Staphylococcus aureus ATCC 6538
# [28] = test system: Escherichia coli 091335
# [29] = test system: Nocardia asteroides
# [30] = test system: Klebsiella pneumoniae
# [31] = test system: Candida parapsilosis
# [32] = test system: Candida krusei ATCC 6258
# [33] = test system: Candida tropicalis ATCC 13803
# [34] = test system: Candida parapsilosis ATCC 22019
# [35] = test system: Candida glabrata
# [36] = test system: Candida glabrata ATCC 15126
# [37] = test system: Candida albicans SC5314
# [38] = test system: Streptococcus mutans UA159
# [39] = test system: Streptococcus sanguinis ATCC 10556
# [40] = test system: Streptococcus sobrinus ATCC 6715
smiles,measurement,setting,value
CC[C@H](C)[C@H](NC(=O)[C@H](C)NC(=O)[C@@H]1CCCN1C(=O)[C@H](CC(C)C)NC(=O)[C@@H](N)Cc1ccccc1)C(=O)N[C@H](C(=O)NCC(=O)N[C@@H](CCSC)C(=O)N[C@@H](C)C(=O)N[C@@H](C)C(=O)N[C@@H](CCCCN)C(=O)N[C@H](C(=O)N[C@@H](CC(C)C)C(=O)N1CCC[C@H]1C(=O)N[C@@H](C)C(=O)N[C@@H](Cc1ccccc1)C(=O)N[C@@H](CC(C)C)C(=O)N[C@H]1CSSC[C@@H](C(=O)O)NC(=O)[C@H](CCCCN)NC(=O)[C@H](CCCCN)NC(=O)[C@H]([C@@H](C)O)NC(=O)[C@H]([C@@H](C)CC)NC(=O)[C@H](CCCCN)NC1=O)C(C)C)[C@@H](C)CC [FLPAIIGMAAKVLPAFLCKITKKC],MIC,[1],4.7 µM
same,MIC,[2],1.2 µM
same,MIC,[3],37.5 µM
same,MIC,[4],≥ 37.5 µM
same,MIC,[5],≥ 75 µM
same,MIC,[6],9.4 µM
same,MIC,[7],≥ 75 µM
CC[C@H](C)[C@H](NC(=O)[C@H](CCSC)NC(=O)[C@H](CC(C)C)NC(=O)[C@H](Cc1ccccc1)NC(=O)[C@H](CCC(N)=O)NC(=O)[C@H](Cc1ccc(O)cc1)NC(=O)[C@H](CCCN=C(N)N)NC(=O)[C@@H](NC(=O)[C@@H](NC(=O)[C@@H](NC(=O)[C@H](CO)NC(=O)CNC(=O)[C@H](CCCN=C(N)N)NC(=O)[C@H](CCCN=C(N)N)NC(=O)[C@@H](N)CCCCN)C(C)C)[C@@H](C)O)[C@@H](C)O)C(=O)N[C@@H](Cc1cnc[nH]1)C(=O)N[C@@H](CC(C)C)C(=O)N[C@@H](CC(C)C)C(=O)N[C@@H](CCCN=C(N)N)C(=O)N1CCC[C@H]1C(=O)N[C@@H](CCCCN)C(=O)N[C@@H](CCCCN)C(=O)N[C@@H](CC(C)C)C(=O)N[C@@H](Cc1ccccc1)C(=O)N[C@@H](C)C(=O)O [KRRGSVTTRYQFLMIHLLRPKKLFA],MIC,[8],13.1 µM
same,MIC,[9],3.07 µM
same,MIC,[10],≥ 32.7 µM
same,MIC,[11],6.14 µM
same,MIC,[12],0.196 µM
same,MIC,[13],3.07 µM
same,MIC,[14],≥ 32.7 µM
same,MIC,[15],≥ 32.7 µM
same,MIC,[16],≥ 32.7 µM
same,MIC,[17],1.54 µM
same,MIC,[18],13.1 µM
same,MIC,[19],3.07 µM
same,MIC,[20],13.1 µM
same,MIC,[21],13.1 µM
same,MIC,[22],≥ 32.7 µM
same,MIC,[23],9.8 µM
same,MIC,[24],3.07 µM
same,MIC,[25],0.196 µM
same,MIC,[3],2.9 µM
same,MIC,[4],≥ 32.7 µM
same,MIC,[26],0.392 µM and > 0.196 µM
same,MIC,[27],13.4 µM
same,MIC,[28],24.5 µM
same,MIC,[29],0.392 µM
same,MIC,[30],> 32.7 µM
CC(C)C[C@H](NC(=O)[C@H](CC(C)C)NC(=O)[C@H](Cc1ccc(O)cc1)NC(=O)[C@H](CCCCN)NC(=O)[C@@H](N)CS)C(=O)N[C@@H](CCCCN)C(=O)N[C@@H](Cc1c[nH]c2ccccc12)C(=O)N[C@@H](CCCN=C(N)N)C(=O)O [CKYLLKWR],MIC,[10],11.3 µM
same,MIC,[31],31.9 µM
same,MIC,[32],22.5 µM
same,MIC,[33],11.3 µM
same,MIC,[19],63.7 µM
same,MIC,[34],≥ 45.1 µM
same,MIC,[35],≥ 45.1 µM
same,MIC,[36],22.5 µM
same,MIC,[37],22.5 µM
CC(C)[C@H](NC(=O)[C@H](CCCCN)NC(=O)[C@H](CCCCN)NC(=O)[C@H](C)NC(=O)[C@H](CCCCN)NC(=O)[C@H](CCCCN)NC(=O)[C@H](Cc1ccccc1)NC(=O)[C@H](Cc1ccccc1)NC(=O)[C@H](CCCCN)NC(=O)[C@H](CCCCN)NC(=O)[C@H](Cc1c[nH]c2ccccc12)NC(=O)CN)C(=O)N[C@@H](Cc1c[nH]c2ccccc12)C(=O)N[C@@H](CCCCN)C(=O)O [GWKKFFKKAKKVWK],MIC,[38],≥ 70.7 µM
same,MIC,[39],≥ 141 µM
same,MIC,[40],≥ 141 µM
